Data published in patent US9751881B2, “Inhibitors of the renal outer medullary potassium channel” (Merck Sharp & Dohme Corp., priority 2013, dated 2017).
Structures can show the parent of a compound that is named as a salt.

molecular target: hROMK (hKir1.1) (Homo sapiens (Human), UniProt P48048); experiment: Thallium Flux Assay (ROMK channel functional thallium flux, FLIPR-Tetra); assay type: cell-based; conditions: HEK293 cells stably expressing hROMK (hKir1.1); unit not given in Table 4 (IC50 potencies less than 1 μM); read-out: ROMK TI IC50
Sequence (P48048 whole entry): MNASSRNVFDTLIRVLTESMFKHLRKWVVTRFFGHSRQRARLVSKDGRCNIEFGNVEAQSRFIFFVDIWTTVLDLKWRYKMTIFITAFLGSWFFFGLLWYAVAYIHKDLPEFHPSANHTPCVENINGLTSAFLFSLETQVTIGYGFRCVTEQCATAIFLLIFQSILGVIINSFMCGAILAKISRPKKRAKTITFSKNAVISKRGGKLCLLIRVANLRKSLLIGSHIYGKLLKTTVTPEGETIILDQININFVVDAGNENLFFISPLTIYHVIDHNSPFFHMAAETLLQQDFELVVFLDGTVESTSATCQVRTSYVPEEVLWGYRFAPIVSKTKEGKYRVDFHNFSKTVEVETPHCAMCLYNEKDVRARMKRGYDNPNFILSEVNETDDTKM
Method in brief: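 HEK293 cells stably expressing hROMK, FluxOR dye-loaded 90 min, then compound 30 min at room temperature. Normalised to 3 μM reference ROMK inhibitor as % fluorescence change.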

Compound | IC50
Cc1c(CCN2CCC3(CC2)CC(=O)N(c2ccc(C#N)cn2)C3)ccc2c1COC2=O [Example 4, 6-(8-(2-(4-methyl-1-oxo-1,3-dihydroisobenzofuran-5-yl)ethyl)-3-oxo-2,8-diazaspiro[4.5]decan-2-yl)nicotinonitrile] | 12 nM
N#Cc1ccc(N2CCC3(CCN(CC(O)c4cc5c(cc4C4CC4)C(=O)OC5)CC3)C2)nc1 (centres unmarked) [Example 25, 6-(8-(2-(6-Cyclopropyl-1-oxo-1,3-dihydroisobenzofuran-5-yl)-2-hydroxyethyl)-2,8-diazaspiro[4.5]decan-2-yl)nicotinonitrile] | 74.4 nM
COc1ccc(C#N)cc1N1CCC2(CCN(C[C@H](O)c3ccc4c(c3C)COC4=O)CC2)C1 [Example 85] | 234 nM
Cc1c([C@@H](O)CN2CCC3(CC2)CCN(c2ccc(C#N)nn2)CC3)ccc2c1COC2=O [Example 105, (R)-6-(9-(2-hydroxy-2-(4-methyl-1-oxo-1,3-dihydroisobenzofuran-5-yl)ethyl)-3,9-diazaspiro[5.5]undecan-3-yl)pyridazine-3-carbonitrile] | 13.5 nM
Cc1c([C@@H](O)CN2CCC3(CC2)CCN(c2ncc(C#N)s2)C3)ccc2c1COC2=O [Example 90] | 6.7 nM
Cc1c([C@@H](O)CN2CCC3(CC2)CCN(c2cc(C#N)ccn2)C3)ccc2c1COC2=O [Example 13, (R)-2-(8-(2-Hydroxy-2-(4-methyl-1-oxo-1,3-dihydroisobenzofuran-5-yl)ethyl)-2,8-diazaspiro[4.5]decan-2-yl)isonicotinonitrile] | 26 nM
Cc1c([C@@H](O)CN2CCC3(CC2)CCN(c2cc(C#N)ccc2F)C3)ccc2c1COC2=O [Example 84] | 255 nM
COc1cc(N2CC3(CCN(C[C@H](O)c4ccc5c(c4C)COC5=O)CC3)CC2=O)ccc1C#N [Example 16, (R)-4-(8-(2-Hydroxy-2-(4-methyl-1-oxo-1,3-dihydroisobenzofuran-5-yl)ethyl)-3-oxo-2,8-diazaspiro[4.5]decan-2-yl)-2-methoxybenzonitrile] | 51 nM
Cc1c([C@@H](O)CN2CCC3(CC2)CC(=O)N(c2ccc(C#N)cc2)C3)ccc2c1COC2=O [Example 14, (R)-4-(8-(2-Hydroxy-2-(4-methyl-1-oxo-1,3-dihydroisobenzofuran-5-yl)ethyl)-3-oxo-2,8-diazaspiro[4.5]decan-2-yl)benzonitrile] | 15 nM
Cc1c([C@@H](O)CN2CCC3(CC2)CCN(c2ccc(S(C)(=O)=O)nc2)CC3)ccc2c1COC2=O [Example 103, (R)-5-(1-hydroxy-2-(9-(6-(methylsulfonyl)148yridine-3-yl)-3,9-diazaspiro[5.5]undecan-3-yl)ethyl)-4-methylisobenzofuran-1(3H)-one] | 563 nM
Cc1c([C@@H](O)CN2CCC3(CC2)CC(=O)N(c2ccc(S(C)(=O)=O)cc2)C3)ccc2c1COC2=O [Example 74, 8-[(2R)-2-Hydroxy-2-(4-methyl-1-oxo-1,3-dihydro-2-benzofuran-5-yl)ethyl]-2-[4-(methylsulfonyl)phenyl]-2,8-diazaspiro[4.5]decan-3-one hydrochloride] | 82.2 nM
C[C@H]1Cc2cc(C(O)CN3CCC4(CC3)CN(c3ccc(C#N)cn3)C4)ccc2C(=O)O1 (stereo partly drawn) [Example 52A, 6-(7-(2-Hydroxy-2-((S)-3-methyl-1-oxoisochroman-6-yl)ethyl)-2,7-diazaspiro[3.5]nonan-2-yl)nicotinonitrile] | 48.7 nM
Cc1c([C@@H](O)CN2CCC3(CC2)CCN(c2cccc(C#N)c2)C3)ccc2c1COC2=O [Example 89] | 118 nM

Continued, values first:

IC50 | Compound
473 nM | Cc1c(C(O)CN2CCC3(CC2)CCN(c2ncc(C#N)cc2F)CC3)ccc2c1COC2=O (centres unmarked) [Example 113]
458 nM | N#Cc1ccc(N2CCC3(CCN(CC(O)c4ccc5c(c4C4CC4)COC5=O)CC3)C2)nc1 (centres unmarked) [Example 26, 6-(8-(2-(4-Cyclopropyl-1-oxo-1,3-dihydroisobenzofuran-5-yl)-2-hydroxyethyl)-2,8-diazaspiro[4.5]decan-2-yl)nicotinonitrile]
341 nM | Cc1c([C@H](O)CN2CCC3(CC2)CCN(c2ccc(S(C)(=O)=O)cn2)C3)ccc2c1COC2=O [Example 56, (S)-5-(1-Hydroxy-2-(2-(5-(methylsulfonyl)pyridin-2-yl)-2,8-diazaspiro[4.5]decan-8-yl)ethyl)-4-methylisobenzofuran-1(3H)-one]
248 nM | Cc1c([C@@H](O)CN2CCC3(CC2)CC(=O)N(c2ccc(S(=O)(=O)C4CC4)cc2)C3)ccc2c1COC2=O [Example 70, 2-[4-(Cyclopropylsulfonyl)phenyl]-8-[(2R)-2-hydroxy-2-(4-methyl-1-oxo-1,3-dihydro-2-benzofuran-5-yl)ethyl]-2,8-diazaspiro[4.5]decan-3-one hydrochloride]
159 nM | Cc1c([C@@H](O)CN2CCC3(CC2)CN(c2ccc(S(C)(=O)=O)cc2)C(=O)O3)ccc2c1COC2=O [Example 94, (R)-8-(2-Hydroxy-2-(4-methyl-1-oxo-1,3-dihydroisobenzofuran-5-yl)ethyl)-3-(4-(methylsulfonyl)phenyl)-1-oxa-3,8-diazaspiro[4.5]decan-2-one]
83.2 nM | CCS(=O)(=O)c1cnc(N2CCC3(CCN(C[C@H](O)c4ccc5c(c4C)COC5=O)CC3)C2)cn1 [Example 63, 5-[(1R)-2-{2-[5-(Ethylsulfonyl)pyrazin-2-yl]-2,8-diazaspiro[4.5]dec-8-yl}-1-hydroxyethyl]-4-methyl-2-benzofuran-1(3H)-one hydrochloride]
75.7 nM | Cc1nc(N2CCC3(CCN(C[C@H](O)c4ccc5c(c4C)COC5=O)CC3)C2)ccc1S(C)(=O)=O [Example 36, (R)-5-(1-Hydroxy-2-(2-(6-methyl-5-(methylsulfonyl)pyridin-2-yl)-2,8-diazaspiro[4.5]decan-8-yl)ethyl)-4-methylisobenzofuran-1(3H)-one]
74.2 nM | Cc1c([C@@H](O)CN2CCC3(CC2)CC(=O)N(c2cnc(S(C)(=O)=O)cn2)C3)ccc2c1COC2=O [Example 35, (R)-8-(2Hydroxy-2-(4-methyl-1-oxo-1,3-dihydroisobenzofuran-5-yl)ethyl)-2-(5-(methylsulfonyl)pyrazin-2-yl)-2,8-diazaspiro[4.5]decan-3-one]
68 nM | Cc1c([C@@H](O)CN2CCC3(CC2)CC(=O)N(c2ccc(S(C)(=O)=O)c(F)c2)C3)ccc2c1COC2=O [Example 67, 2-[3-Fluoro-4-(methylsulfonyl)phenyl]-8-[(2R)-2-hydroxy-2-(4-methyl-1-oxo-1,3-dihydro-2-benzofuran-5-yl)ethyl]-2,8-diazaspiro[4.5]decan-3-one hydrochloride]
63.5 nM | Cc1c([C@@H](O)CN2CCC3(CC2)CCN(c2ccc(-n4ccnn4)cc2)C3)ccc2c1COC2=O [Example 80]
33 nM | Cc1c([C@@H](O)CN2CCC3(CC2)CCN(c2cncc(C#N)c2)C3)ccc2c1COC2=O [Example 12, (R)-5-(8-(2-Hydroxy-2-(4-methyl-1-oxo-1,3-dihydroisobenzofuran-5-yl)ethyl)-2,8-diazaspiro[4.5]decan-2-yl)nicotinonitrile]
14.1 nM | Cc1c([C@@H](N)CN2CCC3(CC2)CCN(c2ccc(C#N)cn2)C3)ccc2c1COC2=O [Example 79, (R)-6-(8-(2-amino-2-(4-methyl-1-oxo-1,3-dihydroisobenzofuran-5-yl)ethyl)-2,8-diazaspiro[4.5]decan-2-yl)nicotinonitrile]

same assay, conditions: read-out: ROMK TI IC50

IC50 | Compound
26 nM | Cc1c([C@@H](O)CN2CCC3(CC2)CCN(c2ccc(C#N)cn2)CC3)ccc2c1COC2=O [Example 104]
